{"source": "PubChem BioAssay AID624001", "about": "(Vanderbilt Specialized Chemistry Center, 2012)", "target": "Phospholipase D1 (Homo sapiens) + Phospholipase D1 (Homo sapiens) (UniProt Q13393+Q13393)", "assay": "phospholipase D1 inhibition, isolated enzyme – biochemical, Lib32, assay 3A, dose response (AID 624001)", "conditions": "purified PLD1 enzyme activity assay", "note": "pIC50: −log10 of the molar value."}
{"smiles": "COc1cc(C(=O)NCCN2CCC3(CC2)C(=O)NCN3c2cccc(F)c2)cc(OC)c1OC", "values": [{"measurement": "pIC50", "value": 4.70}]}
